In patent US20240368150A1 (Hoffmann-La Roche Inc., priority 2021, published 2024):
Read-outs that look alike come from different tables or passages of the source.

Experiments:
[1] = test system: primary human T-cells
[2] = test system: primary human T-cells; assay: Proliferation assay after 5 days (CellTiter-Glo, CD3 stimulation; PBS counter screen); assay type: cell-based; details: CD3 stimulation; for Emax: read-out: Emax proliferation (% activation); for EC50: primary human T-cells, CellTiter-Glo after 5 days, EC50 of fitted sigmoidal curve, read-out: Tcell Proliferation CD3 EC50
Outline: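 Luminescent ATP detection (CellTiter-Glo 2.0) quantified cell number 5 days after compounds went onto medium-only plates. Wells showing visible toxicity or precipitate were noted beforehand, and compounds that stimulated unstimulated cells or lowered viability were flagged.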

[3] = Homo sapiens, T-cell, 120 h, 5 days, normalized to reference compound A1 as stimulator control = 100%, DMSO neutral control

| SMILES | EC50 [1] [µM] | Emax [2, 3] [%] | EC50 ([2]; Homo sapiens, T-cell, 120 h) [µM] | Emax proliferation (% activation) ([2]; 5 days, normalized to reference compound A1 as stimulator control = 100%, DMSO neutral control) | EC50 [2] [µM] |
| --- | --- | --- | --- | --- | --- |
| CC(C)(C)c1nnc(-c2ccc3c(c2)N(Cc2ccc(OC4CCCCC4)cc2)C(=O)[C@@H](N)CS3(=O)=O)o1 [Example 434, (3R)-3-amino-7-(5-tert-butyl-1,3,4-oxadiazol-2-yl)-5-[[4-(cyclohexoxy)phenyl]methyl]-1,1-dioxo-2,3-dihydro-1λ^6,5-benzothiazepin-4-one] | 6.16 | 130 |  |  |  |
| CC(C)(C)c1nnc(-c2ccc3c(c2)N(Cc2ccc(OC4CC4)cc2)C(=O)[C@@H](N)CS3(=O)=O)o1 [Example 435] | 3.28 | 117 | 0.671 |  |  |
| CC(C)(C)c1nnc(-c2ccc3c(c2)N(Cc2ccc(OC4CCOCC4)cc2)C(=O)[C@@H](N)CS3(=O)=O)o1 [Example 436, (3R)-3-amino-7-(5-tert-butyl-1,3,4-oxadiazol-2-yl)-1,1-dioxo-5-[(4-tetrahydropyran-4-yloxyphenyl)methyl]-2,3-dihydro-1λ^6,5-benzothiazepin-4-one] | 4.23 | 66 | 0.94 |  |  |
| CC(C)(C)c1nnc(-c2ccc3c(c2)N(Cc2ccc(Oc4ccc(F)cc4)cc2)C(=O)[C@@H](N)CS3(=O)=O)o1 [Example 439, (3R)-3-amino-7-(5-tert-butyl-1,3,4-oxadiazol-2-yl)-5-[[4-(4-fluorophenoxy)phenyl]methyl]-1,1-dioxo-2,3-dihydro-1λ^6,5-benzothiazepin-4-one] | 2.1 | 138 | 0.299 |  |  |
| CC(C)(C)c1nnc(-c2ccc3c(c2)N(Cc2ccc(Oc4ccc(C(F)(F)F)cn4)cc2)C(=O)[C@@H](N)CS3(=O)=O)o1 [Example 440, (3R)-3-amino-7-(5-tert-butyl-1,3,4-oxadiazol-2-yl)-1,1-dioxo-5-[[4-[[5-(trifluoromethyl)-2-pyridyl]oxy]phenyl]methyl]-2,3-dihydro-1λ^6,5-benzothiazepin-4-one] | 2.51 | 110 | 2.52 |  |  |
| CC#CCOc1ccc(CN2C(=O)[C@@H](N)CS(=O)(=O)c3ccc(-c4nnc(C(C)(C)C)o4)cc32)cc1 [Example 441, (3R)-3-amino-7-(5-tert-butyl-1,3,4-oxadiazol-2-yl)-5-[(4-but-2-ynoxyphenyl)methyl]-1,1-dioxo-2,3-dihydro-1λ^6,5-benzothiazepin-4-one] | 3.85 | 128 | 1.02 |  |  |
| COC(=O)N1CC2CC(c3nnc(-c4ccc5c(c4)N(Cc4ccc(OC(F)(F)C(F)F)cc4)C(=O)[C@@H](N)CS5(=O)=O)o3)(C2)C1 [Example 443, Methyl 1-[5-[(3R)-3-amino-1,1,4-trioxo-5-[[4-(1,1,2,2-tetrafluoroethoxy)phenyl]methyl]-2,3-dihydro-1λ^6,5-benzothiazepin-7-yl]-1,3,4-oxadiazol-2-yl]-3-azabicyclo[3.1.1]heptane-3-carboxylate] | > 10 | 97 | 3.85 |  |  |
| CC(C)(C)c1nnc(-c2ccc3c(c2)N(Cc2ccc(N4CCN(C5CC5)CC4)cc2)C(=O)[C@@H](N)CS3(=O)=O)o1 [Example 445, (3R)-3-amino-7-(5-tert-butyl-1,3,4-oxadiazol-2-yl)-5-[[4-(4-cyclopropylpiperazin-1-yl)phenyl]methyl]-1,1-dioxo-2,3-dihydro-1λ^6,5-benzothiazepin-4-one] | 9.56 | 88 | 4.25 |  |  |
| CC(C)(C)c1nnc(-c2ccc3c(c2)N(Cc2ccc(N4CCOCC4)cc2)C(=O)[C@@H](N)CS3(=O)=O)o1 [Example 446, (3R)-3-amino-7-(5-tert-butyl-1,3,4-oxadiazol-2-yl)-5-[(4-morpholinophenyl)methyl]-1,1-dioxo-2,3-dihydro-1λ^6,5-benzothiazepin-4-one] | 7.57 | 51 | 9.9 |  |  |
| COC1CCN(c2ccc(CN3C(=O)[C@@H](N)CS(=O)(=O)c4ccc(-c5nnc(C(C)(C)C)o5)cc43)cc2)CC1 [Example 447, (3R)-3-amino-7-(5-tert-butyl-1,3,4-oxadiazol-2-yl)-5-[[4-(4-methoxy-1-piperidyl)phenyl]methyl]-1,1-dioxo-2,3-dihydro-1λ^6,5-benzothiazepin-4-one] | 2.54 | 113 | > 10 |  |  |
| CC(C)(C)c1nnc(-c2ccc3c(c2)N(Cc2ccc(N4CCCC4)cc2)C(=O)[C@@H](N)CS3(=O)=O)o1 [Example 448, (3R)-3-amino-7-(5-tert-butyl-1,3,4-oxadiazol-2-yl)-1,1-dioxo-5-[(4-pyrrolidin-1-ylphenyl)methyl]-2,3-dihydro-1λ^6.5-benzothiazepin-4-one] | 4.62 | 94 | 1.96 |  |  |
| C#CCC(C)(C)c1nnc(-c2cc3c(cc2F)S(=O)(=O)C[C@H](N)C(=O)N3Cc2ccc(OC(F)(F)F)cc2)o1 [Example 450, (3R)-3-amino-7-[5-(1,1-dimethylbut-3-ynyl)-1,3,4-oxadiazol-2-yl]-8-fluoro-1,1-dioxo-5-[[4-(trifluoromethoxy)phenyl]methyl]-2,3-dihydro-1λ^6,5-benzothiazepin-4-one] | 0.0731 | 114 | 0.0715 |  |  |
| CC(C)(C)c1nnc(-c2cc3c(cc2F)[S+]([O-])C[C@H](N)C(=O)N3Cc2ccc(OC(F)(F)F)cc2)o1 (some centres unmarked) [Example 453] | 0.178 |  |  | 136 | 0.444 |
| CCN1CCCC(Nc2nnc(-c3cc4c(cc3F)S(=O)(=O)C[C@H](N)C(=O)N4Cc3ccc(Cl)cc3)o2)C1 (stereo partly drawn) [Example 457, (3R)-3-amino-5-[(4-chlorophenyl)methyl]-7-[5-[(1-ethyl-3-piperidyl)amino]-1,3,4-oxadiazol-2-yl]-8-fluoro-1,1-dioxo-2,3-dihydro-1λ^6,5-benzothiazepin-4-one] | 4.88 | 50 | 1.14 |  |  |
| N[C@H]1CS(=O)(=O)c2cc(F)c(-c3nnc(NC4CCN(C5CC5)CC4)o3)cc2N(Cc2ccc(Cl)cc2)C1=O [Example 460, (3R)-3-amino-5-[(4-chlorophenyl)methyl]-7-[5-[(1-cyclopropyl-4-piperidyl)amino]-1,3,4-oxadiazol-2-yl]-8-fluoro-1,1-dioxo-2,3-dihydro-1λ^6,5-benzothiazepin-4-one] | 0.509 | 55 | 5.7 |  |  |
| CN(C)c1nnc(-c2cc3c(cc2F)S(=O)(=O)C[C@H](N)C(=O)N3Cc2ccc(Cl)cc2)o1 [Example 465, (3R)-3-amino-5-[(4-chlorophenyl)methyl]-7-[5-(dimethylamino)-1,3,4-oxadiazol-2-yl]-8-fluoro-1,1-dioxo-2,3-dihydro-1λ^6,5-benzothiazepin-4-one] | 1.17 | 100 | 0.171 |  |  |
| NC1CN(c2nnc(-c3cc4c(cc3F)S(=O)(=O)C[C@H](N)C(=O)N4Cc3ccc(Cl)cc3)o2)CCC1(F)F (stereo partly drawn) [Example 467, (3R)-3-amino-7-[5-(3-amino-4,4-difluoro-1-piperidyl)-1,3,4-oxadiazol-2-yl]-5-[(4-chlorophenyl)methyl]-8-fluoro-1,1-dioxo-2,3-dihydro-1λ^6,5-benzothiazepin-4-one] | 0.475 | 102 | 0.88 |  |  |
| CC1(C#N)CCN(c2nnc(-c3cc4c(cc3F)S(=O)(=O)C[C@H](N)C(=O)N4Cc3ccc(Cl)cc3)o2)CC1 [Example 468, 4-methyl-1-[5-[(3R)-3-amino-5-[(4-chlorophenyl)methyl]-8-fluoro-1,1,4-trioxo-2,3-dihydro-1λ^6,5-benzothiazepin-7-yl]-1,3,4-oxadiazol-2-yl]piperidine-4-carbonitrile] | 3.78 | 127 | 2.67 |  |  |
| N[C@H]1CS(=O)(=O)c2cc(F)c(-c3nnc(N4C[C@H]5C[C@@H](C4)C5(F)F)o3)cc2N(Cc2ccc(Cl)cc2)C1=O [Example 469, (3R)-3-amino-5-[(4-chlorophenyl)methyl]-8-fluoro-1,1-dioxo-7-[5-[(1R,5S)-6,6-difluoro-3-azabicyclo[3.1.1]heptan-3-yl]-1,3,4-oxadiazol-2-yl]-2,3-dihydro-1λ^6,5-benzothiazepin-4-one] | 2.55 | 105 | 0.17 |  |  |
| CN1CCN(c2nnc(-c3cc4c(cc3F)S(=O)(=O)C[C@H](N)C(=O)N4Cc3ccc(Cl)cc3)o2)CC1 [Example 470, (3R)-3-amino-5-[(4-chlorophenyl)methyl]-8-fluoro-7-[5-(4-methylpiperazin-1-yl)-1,3,4-oxadiazol-2-yl]-1,1-dioxo-2,3-dihydro-1λ^6,5-benzothiazepin-4-one] | 0.551 | 101 | 1.41 |  |  |
| CC(=O)N1CCN(c2nnc(-c3cc4c(cc3F)S(=O)(=O)C[C@H](N)C(=O)N4Cc3ccc(Cl)cc3)o2)CC1 [Example 471, (3R)-7-[5-(4-acetylpiperazin-1-yl)-1,3,4-oxadiazol-2-yl]-3-amino-5-[(4-chlorophenyl)methyl]-8-fluoro-1,1-dioxo-2,3-dihydro-1λ^6.5-benzothiazepin-4-one] | > 10 | 65 | 8.03 |  |  |
| N[C@H]1CS(=O)(=O)c2cc(F)c(-c3nnc(N4CCOC5(CC5)C4)o3)cc2N(Cc2ccc(Cl)cc2)C1=O [Example 472, (3R)-3-amino-5-[(4-chlorophenyl)methyl]-8-fluoro-7-[5-(4-oxa-7-azaspiro[2.5]octan-7-yl)-1,3,4-oxadiazol-2-yl]-1,1-dioxo-2,3-dihydro-1λ^6,5-benzothiazepin-4-one] | 0.109 | 115 | 0.116 |  |  |
